In patent US20090186896A1, “PDE Inhibitors and Combinations Thereof for the Treatment of Urological Disorders” (Bayer HealthCare AG, priority 2005, published 2009):
Where two headings read alike, the source gives them in different places.

How the values were obtained:
BOO rats = test: Conscious cystometry in rat bladder outlet obstruction (BOO) model, non voiding contractions; format: in vivo; details: i.v.
Description: All animal experiments were performed due to the “German Law for the Protection of Laboratory animals” and were conducted due to the approved guidelines of the permission “Tierversuchsvorhaben No 401/A01 M010/M011 vom Sep. 7, 2004”. Experiments were performed with female Sprague Dawley Rats with a body weight between 200-250 g.
Bladder Outlet Obstruction: For the bladder outlet obstruction, rats were anesthetized with a mixture of 1.5-2% isoflurane in a carrier of 66% N2O 33% O2. The abdomen was shaved, opened by a lower midline incision, bladder and urethra were identified and the urethravesical junction was exposed. A 1.0 mm metal rod was placed along the proximal urethra and a 6-0 nylon ligature was tied tightly around the urethra and the rod. The rod was consecutively removed and the abdomen was closed by a silk ligature and cleaned up by 70% ethanol. […]
Conscious cystometry: For cystometry the animals were shortly anaesthetized by isoflurane as described above, placed in a Ballman's cage and fixed. […] The efficacy of treatment was quantified via calculation of the non voiding contractions per micturition interval before and after treatment. […]
Statistical analysis of results: Data are expressed as means±standard error of the means (SEM), and n indicating the number of experiments. The significance of differences between means was determined by paired and unpaired Student's t-test. […]

rat urethral rings = test: Organ bath, isolated rat urethral rings pre-contracted with phenylephrine; format: cell-based; details: for Urethra (% contraction): percentage of the pre-contraction, mean ± SEM, n = 9
Description: (§1) Tissue preparation: Male Wistar rats (200-300 g) were euthanized using carbon dioxide. The tissues were removed and placed in ice-cold Krebs-Henseleit buffer of following composition (in mmol/l): NaCl 112, KCl 5.9, CaCl2 2.0 MgCl2 1.2, NaH2PO4 1.2, NaHCO3 25, glucose 11.5. Four equally sized longitudinal strips of approximately 2 mm×10 mm were cut from the bladder body. Prostate strips were obtained by cutting transversally through the lobes of the prostate gland parallel to the urethra. One ring per animal was dissected from the proximal part of the urethra. Recording of mechanical activity: The preparations were transferred to 20 ml organ baths containing Krebs-Henseleit solution equilibrated with 95% O2, 5% CO2 at 37° C. The strips were mounted between two hooks by means of two clips. For recording of isometric tension one of the hooks was connected to a force transducer which was in turn linked to an amplifier and chart recorder. The other hook was attached to a movable unit, permitting precise adjustment of preload tension. All tissues were then given a 60 min equilibration period during which they were washed and the resting tension was adjusted to 1 g every 20 min. After the equilibration period, each experiment was started by exposing the preparation to K^+ (50 mmol/l) Krebs-Henseleit solution. The procedure was repeated 3 times and the tissues were washed at least tree times between each contraction. Prostatic strips and urethral rings were pre-contracted using 10^−6 mol/l phenylephrine. The effects of the compounds on the prostate tissue were tested in a non-cumulative manner with washing steps between each concentration. Organ bath assay: effects of Vardenafil on isolated rat urogenital organs: The effects of the PDE5 inhibitor Vardenafil on the relaxation of smooth muscles were tested in the organ bath system. The compound was applied in the concentration range from 10^−8 mol/l to 10^−5 mol/l (FIG. 3, Table 1).

CYP-treated rats = test: Anaesthetized cystometry, micturition interval in CYP-treated rats (overactive bladder); format: in vivo, rat; details: i.v.
Description: All animal experiments were performed due to the “German Law for the Protection of Laboratory animals” and were conducted due to the approved guidelines of the permission “Tierversuchsvorhaben No 401/A01 M010/M011 vom Sep. 7, 2004”. Experiments were performed with female Sprague Dawley Rats with a body weight between 200-250 g. Anaesthetized cystometry: For cystometry female SD rats were anaesthetized with urethane (1.2 g/kg, ip). After laparotomy, the bladder was exposed and both ureters were ligated and cut. A polyethylene cannula (PE50) was implanted into the bladder dome, and the abdomen was closed. The bladder catheter was connected to the t-shaped tube to connect a infusion pump (Perfusor® compact; Braun Melsungen) for continuous infusion of saline solution and to connect a pressure transducer (Combitrans; Braun Melsungen) for measurement of intrabladder pressure. The intrabladder pressure signals were registered with the Powerlab System (MLT0698, ADInstrument). […] The effect of treatments was calculated on the micturition interval (corresponding to bladder capacity). […]
Statistical analysis of results: Data are expressed as means i standard error of the means (SEM), and n indicating the number of experiments. The significance of differences between means was determined by paired and unpaired Student's t-test. […]

rat bladder strips = test: Organ bath, isolated rat bladder strips pre-contracted with K+ (50 mmol/l); format: cell-based; details: for Bladder (% contraction): percentage of the pre-contraction, mean ± SEM, n = 9
Description: Tissue preparation: Male Wistar rats (200-300 g) were euthanized using carbon dioxide. The tissues were removed and placed in ice-cold Krebs-Henseleit buffer of following composition (in mmol/l): NaCl 112, KCl 5.9, CaCl2 2.0 MgCl2 1.2, NaH2PO4 1.2, NaHCO3 25, glucose 11.5. Four equally sized longitudinal strips of approximately 2 mm×10 mm were cut from the bladder body. Prostate strips were obtained by cutting transversally through the lobes of the prostate gland parallel to the urethra. One ring per animal was dissected from the proximal part of the urethra. Recording of mechanical activity: The preparations were transferred to 20 ml organ baths containing Krebs-Henseleit solution equilibrated with 95% O2, 5% CO2 at 37° C. The strips were mounted between two hooks by means of two clips. For recording of isometric tension one of the hooks was connected to a force transducer which was in turn linked to an amplifier and chart recorder. The other hook was attached to a movable unit, permitting precise adjustment of preload tension. All tissues were then given a 60 min equilibration period during which they were washed and the resting tension was adjusted to 1 g every 20 min. After the equilibration period, each experiment was started by exposing the preparation to K^+ (50 mmol/l) Krebs-Henseleit solution. The procedure was repeated 3 times and the tissues were washed at least tree times between each contraction. The bladder strips were than pre-contracted using K^+ (50 mmol/l) Krebs-Henseleit solution. When the contraction was stabilized, an accumulative dose response curve of the compound tested was constructed. The stabilized contraction induced by K^+ (50 mmol/l) Krebs-Henseleit solution was defined as 100% tension. The relaxation was expressed as percentage tension. Organ bath assay: effects of Vardenafil on isolated rat urogenital organs: The effects of the PDE5 inhibitor Vardenafil on the relaxation of smooth muscles were tested in the organ bath system. The compound was applied in the concentration range from 10^−8 mol/l to 10^−5 mol/l (FIG. 3, Table 1).

rat prostate strips = test: Organ bath, isolated rat prostate strips pre-contracted with phenylephrine; format: cell-based; details: for Prostate (% contraction): percentage of the pre-contraction, mean ± SEM, n = 9
Description: as §1

rabbit bladder strips = test: Organ bath, isolated rabbit bladder strips pre-contracted with K+ (50 mmol/l); format: cell-based; details: for % contraction of isolated rabbit bladder strips: percentage of the pre-contraction, mean ± SEM, n = 9; for IC50: Oryctolagus cuniculus, rabbit bladder strips
Description: White New Zealand rabbits were anesthetized using thiopental. The urinary bladder was removed and placed in ice-cold Krebs-Henseleit buffer of following composition (in mmol/l): NaCl 112, KCl 5.9, CaCl2 2.0 MgCl2 1.2, NaH2PO4 1.2, NaHCO3 25, and glucose 11.5. Equally sized longitudinal strips of approximately 2 mm×10 mm were cut from the bladder body.
Recording of mechanical activity: The preparations were transferred to 20 ml organ baths containing Krebs-Henseleit solution equilibrated with 95% O2, 5% CO2 at 37° C. The strips were mounted between two hooks by means of two clips. For recording of isometric tension one of the hooks was connected to a force transducer which was in turn linked to an amplifier and chart recorder. The other hook was attached to a movable unit, permitting precise adjustment of preload tension. All tissues were then given a 60 min equilibration period during which they were washed and the resting tension was adjusted to 1 g every 20 min.
After the equilibration period, each experiment was started by exposing the preparation to K^+ (50 mmol/l) Krebs-Henseleit solution. The procedure was repeated 3 times and the tissues were washed at least tree times between each contraction.
The bladder strips were than pre-contracted using K^+ (50 mmol/l) Krebs-Henseleit solution. When the contraction was stabilized, an accumulative dose response curve of the compound tested was constructed. The stabilized contraction induced by K^+ (50 mmol/l) Krebs-Henseleit solution was defined as 100% tension. The relaxation was expressed as percentage tension.
Effects of PDE5 and PDE4 inhibitors on isolated rabbit bladder strips: The effects of the PDE5 inhibitor vardenafil and the PDE4 inhibitor Roflumilast on the relaxation the bladder smooth muscle was tested in the organ bath using rabbit bladder strips. Both compounds were tested in the concentration from 10^−9 mol/l to 10^−5 mol/l (FIG. 4, Tab. 2). […] (Table 2)

human prostate tissue = details: in vitro; Ückert 2001; cited from earlier work
[1] = tested on: bladder of female Guinea Pigs; details: Gillespie 2004; cited from earlier work
[2] = read-out: IC50, relaxation of bladder strips

Structure (SMILES): CCCc1nc(C)c2c(=O)[nH]c(-c3cc(S(=O)(=O)N4CCN(CC)CC4)ccc3OCC)nn12 [Vardenafil, 2-(2-Ethoxy-5-(4-ethylpiperazin-1-yl-1-sulfonyl)phenyl)-5-methyl-7-propyl-3H-imidazo (5,1-f) (1,2,4)triazin-4-one]
- MED, significant reduction of non voiding contractions (NVC) (BOO rats): 3 mg/kg
- Urethra (% contraction) (rat urethral rings; 0.001 μmol/l): 88.4 ± 2.4%
- Urethra (% contraction) (rat urethral rings; 0.01 μmol/l): 88.5 ± 2.1%
- Urethra (% contraction) (rat urethral rings; 0.1 μmol/l): 77.1 ± 3.9%
- Urethra (% contraction) (rat urethral rings; 1 μmol/l): 44.9 ± 1.5%
- Urethra (% contraction) (rat urethral rings; 10 μmol/l): 3.5 ± 1.7%
- EC50 (rat urethral rings; rat urethral rings, read-out: EC50, relaxation of urethral rings): 960 nM
- MED, significant increase of micturition interval (CYP-treated rats): 3 mg/kg
- Bladder (% contraction) (rat bladder strips; 0.001 μmol/l): 94.3 ± 0.9%
- Bladder (% contraction) (rat bladder strips; 0.01 μmol/l): 91.2 ± 1.3%
- Bladder (% contraction) (rat bladder strips; 0.1 μmol/l): 89.9 ± 1.8%
- Bladder (% contraction) (rat bladder strips; 1 μmol/l): 77.8 ± 2.1%
- Bladder (% contraction) (rat bladder strips; 10 μmol/l): 25.3 ± 3.2%
- EC50 (rat bladder strips; rat bladder strips, read-out: EC50, relaxation of bladder strips): 5000 nM
- Prostate (% contraction) (rat prostate strips; 0.1 μmol/l): 99.2 ± 3.0%
- Prostate (% contraction) (rat prostate strips; 1 μmol/l): 76.0 ± 2.3%
- Prostate (% contraction) (rat prostate strips; 10 μmol/l): 25.3 ± 3.2%
- EC50 (rat prostate strips; rat prostate strips, read-out: EC50, relaxation of prostate strips): 1100 nM
- % contraction of isolated rabbit bladder strips (rabbit bladder strips; 0.001 μmol/l): 100.9 ± 1.0%
- % contraction of isolated rabbit bladder strips (rabbit bladder strips; 0.01 μmol/l): 99.9 ± 0.9%
- % contraction of isolated rabbit bladder strips (rabbit bladder strips; 0.1 μmol/l): 95.7 ± 1.7%
- % contraction of isolated rabbit bladder strips (rabbit bladder strips; 1 μmol/l): 76.3 ± 3.7%
- % contraction of isolated rabbit bladder strips (rabbit bladder strips; 10 μmol/l): 9.6 ± 12.6%
- IC50 (rabbit bladder strips; [2]): 1700 nM

Structure (SMILES): CCCOc1ccccc1-c1nc2nn[nH]c2c(=O)[nH]1 [Zaprinast]
- relaxation of pre-contracted human prostate tissue (human prostate tissue): able to relax
- relaxation of bladder [1]: ineffective

Structure (SMILES): CC(C)Cn1c(=O)n(C)c(=O)c2[nH]cnc21 [IBMX]
- relaxation of bladder [1]: could relax

Structure (SMILES): O=C(Nc1c(Cl)cncc1Cl)c1ccc(OC(F)F)c(OCC2CC2)c1 [Roflumilast]
- % contraction of isolated rabbit bladder strips (rabbit bladder strips; 0.001 μmol/l): 100.8 ± 0.6%
- % contraction of isolated rabbit bladder strips (rabbit bladder strips; 0.01 μmol/l): 90.1 ± 1.7%
- % contraction of isolated rabbit bladder strips (rabbit bladder strips; 0.1 μmol/l): 75.1 ± 2.1%
- % contraction of isolated rabbit bladder strips (rabbit bladder strips; 1 μmol/l): 55.8 ± 2.5%
- % contraction of isolated rabbit bladder strips (rabbit bladder strips; 10 μmol/l): 40.9 ± 3.3%
- IC50 (rabbit bladder strips; [2]): 260 nM
- IC50 (rabbit bladder strips; read-out: IC50, relaxing effects on rabbit bladder strips): 260 nM
